Test results as given in the supplement of paper PMC13207355.

What was measured:
Conditions in all cases: exposure time: 72 h
E21 [1] = patient-derived glioblastoma stem cells of mesenchymal subtype; assay: phenotypic distance (Euclidean, principal components) from DMSO controls (arbitrary units); higher = stronger morphological change
E31 [2] = patient-derived glioblastoma stem cells of proneural subtype; assay: as above
FT3469 [3] = normal neural stem cell line; assay: as above
E13 [4] = patient-derived glioblastoma stem cells of classical subtype; assay: as above
E34 [5] = patient-derived glioblastoma stem cells of proneural subtype; assay: as above
E57 [6] = patient-derived glioblastoma stem cells of mesenchymal subtype; assay: as above
E28 [7] = patient-derived glioblastoma stem cells of classical subtype; assay: as above
E21 [8] = assay: surviving fraction (nuclei count normalised to DMSO); higher = more cells surviving (less toxic)
E31 [9] = assay: as above
FT3469 [10] = assay: as above
E13 [11] = assay: as above
E34 [12] = assay: as above
E57 [13] = assay: as above
E28 [14] = assay: as above
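Wherever phenotypic distance (Euclidean, principal components) from DMSO controls is given: cell Painting imaging in 384-well plates, CellProfiler features reduced to at least 20 principal components, Euclidean distance versus same-plate DMSO vehicle wells (0.1% v/v), median over six images per well.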
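Wherever surviving fraction (nuclei count normalised to DMSO) is given: nuclei counted by high-content imaging of Hoechst-stained cells in laminin-coated 384-well plates, relative to 0.1% DMSO vehicle wells, with staurosporine as cell-death control.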

CC(=O)CC(c1ccc([N+](=O)[O-])cc1)c1c(O)c2ccccc2oc1=O (stereo not drawn) [Acenocoumarol]
Conditions | phenotypic distance | surviving fraction
E13 [4], 4.1 nM | 0.426 | –
E13 [4], 12.3 nM | 0.665 | –
E13 [4], 37 nM | 2.8 | –
E13 [4], 111.1 nM | 0.663 | –
E13 [4], 333.3 nM | 0.594 | –
E13 [4], 1000 nM | 0.586 | –
E13 [4], 3000 nM | 0.934 | –
E13 [11], 4.1 nM | – | 0.91
E13 [11], 12.3 nM | – | 1.04
E13 [11], 37 nM | – | 1.05
E13 [11], 111.1 nM | – | 1.03
E13 [11], 333.3 nM | – | 0.873
E13 [11], 1000 nM | – | 0.931
E13 [11], 3000 nM | – | 0.767
E21 [1], 4.1 nM | 1.01 | –
E21 [1], 12.3 nM | 0.655 | –
E21 [1], 37 nM | 0.963 | –
E21 [1], 111.1 nM | 0.772 | –
E21 [1], 333.3 nM | 0.946 | –
E21 [1], 1000 nM | 0.684 | –
E21 [1], 3000 nM | 1.11 | –
E21 [8], 4.1 nM | – | 0.926
E21 [8], 12.3 nM | – | 1.09
E21 [8], 37 nM | – | 0.897
E21 [8], 111.1 nM | – | 0.931
E21 [8], 333.3 nM | – | 0.865
E21 [8], 1000 nM | – | 0.954
E21 [8], 3000 nM | – | 0.852
E28 [7], 4.1 nM | 1.02 | –
E28 [7], 12.3 nM | 0.39 | –
E28 [7], 37 nM | 0.547 | –
E28 [7], 111.1 nM | 0.548 | –
E28 [7], 333.3 nM | 0.562 | –
E28 [7], 1000 nM | 1.03 | –
E28 [7], 3000 nM | 0.857 | –
E28 [14], 4.1 nM | – | 0.905
E28 [14], 12.3 nM | – | 0.999
E28 [14], 37 nM | – | 0.918
E28 [14], 111.1 nM | – | 0.967
E28 [14], 333.3 nM | – | 1.06
E28 [14], 1000 nM | – | 0.92
E28 [14], 3000 nM | – | 0.901
E31 [2], 4.1 nM | 0.829 | –
E31 [2], 12.3 nM | 0.483 | –
E31 [2], 37 nM | 1.07 | –
E31 [2], 111.1 nM | 0.701 | –
E31 [2], 333.3 nM | 0.894 | –
E31 [2], 1000 nM | 0.819 | –
E31 [2], 3000 nM | 1.06 | –
E31 [9], 4.1 nM | – | 0.989
E31 [9], 12.3 nM | – | 0.923
E31 [9], 37 nM | – | 0.848
E31 [9], 111.1 nM | – | 0.934
E31 [9], 333.3 nM | – | 1.03
E31 [9], 1000 nM | – | 0.955
E31 [9], 3000 nM | – | 0.809
E34 [5], 4.1 nM | 1.2 | –
E34 [5], 12.3 nM | 0.513 | –
E34 [5], 37 nM | 1.59 | –
E34 [5], 111.1 nM | 0.677 | –
E34 [5], 333.3 nM | 0.562 | –
E34 [5], 1000 nM | 0.954 | –
E34 [5], 3000 nM | 0.563 | –
E34 [12], 4.1 nM | – | 0.771
E34 [12], 12.3 nM | – | 1.01
E34 [12], 37 nM | – | 1.04
E34 [12], 111.1 nM | – | 1.06
E34 [12], 333.3 nM | – | 0.935
E34 [12], 1000 nM | – | 0.918
E34 [12], 3000 nM | – | 0.892
E57 [6], 4.1 nM | 0.94 | –
E57 [6], 12.3 nM | 1.02 | –
E57 [6], 37 nM | 1.11 | –
E57 [6], 111.1 nM | 1.36 | –
E57 [6], 333.3 nM | 0.492 | –
E57 [6], 1000 nM | 0.718 | –
E57 [6], 3000 nM | 0.744 | –
E57 [13], 4.1 nM | – | 1.08
E57 [13], 12.3 nM | – | 1.09
E57 [13], 37 nM | – | 1.02
E57 [13], 111.1 nM | – | 1.07
E57 [13], 333.3 nM | – | 1.03
E57 [13], 1000 nM | – | 0.983
E57 [13], 3000 nM | – | 1.02
FT3469 [3], 4.1 nM | 1.4 | –
FT3469 [3], 12.3 nM | 0.712 | –
FT3469 [3], 37 nM | 1.02 | –
FT3469 [3], 111.1 nM | 0.751 | –
FT3469 [3], 333.3 nM | 0.862 | –
FT3469 [3], 1000 nM | 0.691 | –
FT3469 [3], 3000 nM | 0.764 | –
FT3469 [10], 4.1 nM | – | 1.01
FT3469 [10], 12.3 nM | – | 1.07
FT3469 [10], 37 nM | – | 0.881
FT3469 [10], 111.1 nM | – | 1.12
FT3469 [10], 333.3 nM | – | 0.823
FT3469 [10], 1000 nM | – | 0.849
FT3469 [10], 3000 nM | – | 0.771
